These results are taken from patent US20240108747A1, “EXTRACELLULAR VESICLE CONJUGATES AND USES THEREOF” (LONZA SALES AG, priority 2019, published 2024).

Starred links: 1 amine or outer side, 2 acyl side, 3 side chain; linkers in the order of their positions; H or OH if unused. Non-standard residues stand in square brackets, D forms with d. Residues, ends and D or L forms follow the SMILES beside them. *: point of attachment. Dolaproine = CO[C@@H]([C@@H]1CCCN1)[C@@H](C)C(=O)O; Hexanoyl(6-maleimido) = O=C1C=CC(=O)N1CCCCCC(=O)*; Dil = CC[C@H](C)[C@H](NC)[C@@H](CC(=O)O)OC; PABC = O=C(OCc1ccc(N[*:1])cc1)[*:2]; X1 = C[C@@H](N*)[C@@H](O)c1ccccc1; Cit = NC(=O)NCCC[C@H](N)C(=O)O; NMeV = CN[C@H](C(=O)O)C(C)C

The conditions of series [1]: Phase 2 study (Palmer 2018); cited from earlier work.
The next series relates to NLRC4 inflammasome. The note with it: cited from earlier work.
A further series concerns AIM2 inflammasome. The note with it: cited from earlier work.
In the next series the test system is NLRP1 inflammasome. Conditions: cited from earlier work.
The test system of another series is TLR2 signaling. Conditions: cited from earlier work.
A further series concerns the target NLRP3 (Sus scrofa, UniProt H2EW08). The note with it: models for myocardial infarction; cited from earlier work.
Another series has as its system RAW264.7 (RAW) cells. As to the kind of experiment: MMAE cytotoxicity / cell growth on RAW264.7 cells (IncuCyte). It is filed as cell-based, mouse. As for the experimental part:
The dose-response effects of MMAE on RAW cell growth are shown in microphotographs (top), and measurements of cells growth (bottom left), and confluence (bottom right).
MMAE cytotoxicity was assessed on RAW264.7 (RAW) cells. RAW cells are a […] macrophage cell line. 10,000 RAW cells were seeded in each well of a 96 well plate, and cell growth was monitored using an IncuCyte instrument to image cells over a period of approximately 5 days. […] Images show cells after 5 days of treatment with the indicated dose of MMAE or DMSO; growth inhibition is evident from the decreased number of cells after treatment with MMAE, while cell death is indicated by the rounding up of cells (evident in the 10, 100, and 300 nM images). MMAE has a steep dose-response curve.

The target in another series is mouse LPA-1 (Mus musculus, UniProt P61793). Conditions: cited from earlier work.
mouse LPA-1, sequence (P61793 whole entry): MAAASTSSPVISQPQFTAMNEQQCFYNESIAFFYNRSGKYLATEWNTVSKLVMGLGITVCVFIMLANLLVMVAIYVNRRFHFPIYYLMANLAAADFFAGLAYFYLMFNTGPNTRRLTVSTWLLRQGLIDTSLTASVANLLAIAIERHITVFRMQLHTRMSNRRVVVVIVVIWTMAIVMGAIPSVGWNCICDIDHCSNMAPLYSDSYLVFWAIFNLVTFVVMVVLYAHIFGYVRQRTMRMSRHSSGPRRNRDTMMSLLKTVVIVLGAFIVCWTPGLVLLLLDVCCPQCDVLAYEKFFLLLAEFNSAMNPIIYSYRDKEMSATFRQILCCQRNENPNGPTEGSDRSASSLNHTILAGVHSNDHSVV
A further series deals with recombinant human LPA-1 (Homo sapiens, UniProt Q92633). The note with it: cited from earlier work.
recombinant human LPA-1, sequence (Q92633 whole entry): as the sequence (P61793 whole entry) above, with A4I, S8I, Q22P, Y40H, V61I, D193E, H194N, V269I, N331S, N335T counted along it
Another series has as its system mouse LPA-1/CHO cells. Conditions: read-out: IC50, inhibition of LPA-1-induced chemotaxis; cited from earlier work.
The subject of series [2] is human A2058 melanoma cells. Conditions: read-out: IC50, inhibition of LPA-1-induced chemotaxis; cited from earlier work.
Series [3] concerns LPA-induced histamine release. Conditions: mice; cited from earlier work.
The conditions of series [4]: cited from earlier work.

NLRP3, sequence (H2EW08 1-1036): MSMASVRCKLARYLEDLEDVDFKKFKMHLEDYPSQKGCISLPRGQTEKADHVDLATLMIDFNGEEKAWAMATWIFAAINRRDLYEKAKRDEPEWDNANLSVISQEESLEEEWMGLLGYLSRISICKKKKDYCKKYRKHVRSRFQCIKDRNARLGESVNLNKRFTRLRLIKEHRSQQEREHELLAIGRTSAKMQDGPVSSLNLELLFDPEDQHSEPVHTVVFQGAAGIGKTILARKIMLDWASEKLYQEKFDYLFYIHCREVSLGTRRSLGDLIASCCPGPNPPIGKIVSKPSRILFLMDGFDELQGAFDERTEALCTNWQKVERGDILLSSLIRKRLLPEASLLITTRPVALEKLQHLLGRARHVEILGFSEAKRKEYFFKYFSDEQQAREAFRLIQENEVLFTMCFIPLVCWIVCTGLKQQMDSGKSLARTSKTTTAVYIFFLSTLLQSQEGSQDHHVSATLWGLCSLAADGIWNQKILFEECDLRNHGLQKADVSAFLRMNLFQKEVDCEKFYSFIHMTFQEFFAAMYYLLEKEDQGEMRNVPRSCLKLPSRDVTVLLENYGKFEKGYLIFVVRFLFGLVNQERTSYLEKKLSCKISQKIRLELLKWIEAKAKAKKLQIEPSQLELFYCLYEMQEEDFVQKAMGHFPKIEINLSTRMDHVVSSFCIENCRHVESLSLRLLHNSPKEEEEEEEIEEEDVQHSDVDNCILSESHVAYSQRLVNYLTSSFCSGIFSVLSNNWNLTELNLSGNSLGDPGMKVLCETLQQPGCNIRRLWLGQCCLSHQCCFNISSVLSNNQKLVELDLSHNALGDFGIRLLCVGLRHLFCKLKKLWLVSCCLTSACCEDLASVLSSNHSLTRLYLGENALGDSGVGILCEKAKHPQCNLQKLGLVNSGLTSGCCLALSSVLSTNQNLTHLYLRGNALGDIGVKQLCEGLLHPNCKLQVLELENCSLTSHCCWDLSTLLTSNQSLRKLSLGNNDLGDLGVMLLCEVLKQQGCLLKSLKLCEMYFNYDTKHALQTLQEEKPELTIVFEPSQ

With `Cc1noc(-c2ccc(-c3ccc(C4(C(=O)O)CC4)cc3)cc2)c1NC(=O)O[C@H](C)c1ccccc1` [AM152, Cyclopropanecarboxylic acid, 1-[4′-[3-methyl-4-[[[(1R)-1-phenylethoxy]carbonyl]amino]-S-isoxazolyl][1,1′-biphenyl]-4-yl]-], in [1], the “toxicity leading to early termination of the study” value was “gall bladder toxicity and early signs of liver toxicity”.
Take `CC(C)(O)c1coc(S(=O)(=O)NC(=O)Nc2c3c(cc4c2CCC4)CCC3)c1` [MCC950, N-[[(1,2,3,5,6,7-hexahydro-s-indacen-4-yl)amino]carbonyl]-4-(1-hydroxy-1-methylethyl)-2-furansulfonamide]: in the series on NLRC4 inflammasome, the “inhibition of NLRC4 inflammasome” value is “does not inhibit”. Moreover, in the series with AIM2 inflammasome, the “inhibition of AIM2 inflammasome” value is given as “does not inhibit”. Besides, the “inhibition of NLRP1 inflammasome” value with NLRP1 inflammasome is “does not inhibit”. Besides, the “inhibition of TLR2 signaling” value with TLR2 signaling is “does not inhibit”. Further, on NLRP3, the “NLRP3-induced IL-1β production” value is on record as “inhibits NLRP3-induced IL-1β production”.
For the compound `CC[C@H](C)[C@@H]([C@@H](CC(=O)N1CCC[C@H]1[C@H](OC)[C@@H](C)C(=O)N[C@H](C)[C@@H](O)c1ccccc1)OC)N(C)C(=O)[C@@H](NC(=O)[C@@H](NC)C(C)C)C(C)C` [MMAE, monomethyl auristatin E] (H-[NMeV]V[Dil][Dolaproine]-X1), the “MMAE concentrations giving potent growth inhibition and cell death” value in the series with RAW264.7 (RAW) cells (free drug, about 5 days, FIG. 7) was “above 1.1 nM”.
`CC[C@H](C)[C@@H]([C@@H](CC(=O)N1CCC[C@H]1[C@H](OC)[C@@H](C)C(=O)N[C@H](C)[C@@H](O)c1ccccc1)OC)N(C)C(=O)[C@@H](NC(=O)[C@H](C(C)C)N(C)C(=O)OCc1ccc(NC(=O)[C@H](CCCNC(N)=O)NC(=O)[C@@H](NC(=O)CCCCCN2C(=O)C=CC2=O)C(C)C)cc1)C(C)C` [vc-MMAE, maleimide-vc-PABC-MMAE] ({Hexanoyl(6-maleimido)}-V[Cit][PABC][NMeV]V[Dil][Dolaproine]-X1): in the series with RAW264.7 (RAW) cells (administered to cells as a free drug, FIG. 8A), the “fold less toxic than unmodified MMAE” value is given as “approximately 100 fold”.
`Cc1noc(-c2ccc(-c3ccc(CC(=O)O)cc3)cc2)c1NC(=O)O[C@H](C)c1ccccc1` [AM095, 1,1′-Biphenyl]-4-acetic acid, 4′-[3-methyl-4-[[[(1R)-1-phenylethoxy]carbonyl]amino]-S-isoxazolyl[ ]-]: the IC50 on mouse LPA-1 is 0.73 µM; at recombinant human LPA-1, 0.98 µM; in the series with mouse LPA-1/CHO cells, 0.78 µM; in series [2], 0.23 µM. Also, the “ED50, block of LPA-induced histamine release” value in [3] is given as 8.3 mg/kg. Moreover, the “ED50, reduction of BALF collagen and protein” value in [4] (in lungs) is recorded as 10 mg/kg. In [4] (mice), the “macrophage and lymphocyte infiltration induced by bleomycin” value was “decrease both macrophage and lymphocyte infiltration”.
